Converted amounts (≈) assume the structure as drawn. Marks after values point to notes of the source that are not given here. Non-standard residues stand in square brackets, D forms with d. Residues, ends and D or L forms follow the SMILES beside them. d2Nal = N[C@H](Cc1ccc2ccccc2c1)C(=O)O
What was measured:
[1] = test system: Staphylococcus aureus (NRS 384); conditions: NRS 384, 3 h
Method: Trypsin (250 U/mg, pH=8.0) and AMPs (LV-1 to LV-30) were mixed in a ratio of 1:10 (w/w) and added to a reaction buffer (0.2 M sodium phosphate, 1 mM CaCl2), pH 7.5), and then incubated at 37° C. for 3 h.

[2] = test system: Shigella flexneri ATCC 12022; experiment: MIC against clinically common bacterial strain; type: cell-based
How it was run: (§1)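 Read-out is MIC, from a CLSI-conformant twofold microdilution series, done in quintuplicate in parallel.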

[3] = Serum stability assay (residual level by RP-HPLC); conditions: human
[4] = test system: Escherichia coli ATCC 25922; experiment: Oral formulations on mice with systemic bacterial infection; type: in vivo, ICR mice; conditions: three times a day for 7 days; for Number of mice that died on each day after infection: day 4 / Number of mice that died on each day after infection: day 5 / Number of mice that died on each day after infection: day 6 / Number of mice that died on each day after infection: day 7 / Number of mice that died on each day after infection: day 8 / Average survival times (Days): n = 10; for Average survival times (Days): observed for 14 d
How it was run: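 Survival time and deaths were logged over a 14 d observation after oral gavage dosing (by body weight, thrice daily, 7 days, starting right after infection). Model: mixed-sex ICR mice, n=10 per group, intraperitoneal injection of E. coli ATCC 25922 suspension (0.2 mL, 1×10^7 CFU/mL).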

Candida krusei ATCC 6258 = type: cell-based
How it was run: as §1

[5] = test system: Pseudomonas aeruginosa ATCC 27853; type: cell-based
How it was run: as §1

[6] = test system: Corynebacterium ATCC 7715; type: cell-based
How it was run: as §1

[7] = test system: Bacillus subtilis ATCC 6633; type: cell-based
How it was run: as §1

[8] = test system: Candida glabrata ATCC 15126; type: cell-based
How it was run: as §1

[9] = test system: Klebsiella pneumoniae ATCC 700603; type: cell-based
How it was run: as §1

[10] = test system: Escherichia coli ATCC 25922; type: cell-based
How it was run: as §1

[11] = test system: Staphylococcus aureus ATCC 25923; type: cell-based
How it was run: as §1

Candida utilis ATCC 9950 = type: cell-based
How it was run: as §1

[12] = test system: Candida albicans ATCC MYA-2876; type: cell-based
How it was run: as §1

[13] = test system: Salmonella typhimurium ATCC 14028; type: cell-based
How it was run: as §1

[14] = test system: Candida tropicalis ATCC 750; type: cell-based
How it was run: as §1

[15] = test system: Trichophyton ATCC MYA-4438; type: cell-based
How it was run: as §1

Enterococcus ATCC 29212 = type: cell-based
How it was run: as §1

[16] = test system: Serratia marcescens ATCC 29021; type: cell-based
How it was run: as §1

[17] = test system: Staphylococcus aureus (NRS 384); experiment: microbe, parasite or virus in culture; type: cell-based; conditions: NRS 384
How it was run: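 MICs were read against S. aureus strain NRS 384 using twofold serial dilution by CLSI microdilution rules. Levofloxacin and Cbf-K16 were the reference controls, and the test was repeated 5 times in parallel.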

Row | SMILES | Trypsin MIC [1] [µg/mL] | MIC Shigella flexneri ATCC 12022 [2] [µg/mL] | remaining at 12 h, 0.91 mg/mL [3] [%] | Number of mice that died on each day after infection: day 4 ([4]; 1 mg/kg gavage) [Mouse] | Number of mice that died on each day after infection: day 5 ([4]; 1 mg/kg gavage) [Mouse] | Number of mice that died on each day after infection: day 6 ([4]; 1 mg/kg gavage) [Mouse] | Number of mice that died on each day after infection: day 7 ([4]; 1 mg/kg gavage) [Mouse] | Number of mice that died on each day after infection: day 8 ([4]; 1 mg/kg gavage) [Mouse] | Average survival times (Days) ([4]; 1 mg/kg gavage) | MIC Candida krusei ATCC 6258 (Candida krusei ATCC 6258) [µg/mL] | MIC Pseudomonas aeruginosa ATCC 27853 [5] [µg/mL] | MIC Corynebacterium ATCC 7715 [6] [µg/mL] | MIC Bacillus subtilis ATCC 6633 [7] [µg/mL] | MIC Candida glabrata ATCC 15126 [8] [µg/mL] | MIC Klebsiella pneumoniae ATCC 700603 [9] [µg/mL] | MIC Escherichia coli ATCC 25922 [10] [µg/mL] | MIC Staphylococcus aureus ATCC 25923 [11] [µg/mL] | MIC Candida utilis ATCC 9950 (Candida utilis ATCC 9950) [µg/mL] | MIC Candida albicans ATCC MYA-2876 [12] [µg/mL] | MIC Salmonella typhimurium ATCC 14028 [13] [µg/mL] | other results
1 | CC(=O)N[C@H](CCCNC(=N)N)C(=O)N[C@H](CCCNC(=N)N)C(=O)N[C@H](CC(C)C)C(=O)N[C@H](CC(C)C)C(=O)N[C@H](Cc1ccc2ccccc2c1)C(=O)N[C@H](CCCNC(=N)N)C(=O)N[C@H](CC(C)C)C(=O)N[C@H](CCCNC(=N)N)C(=O)N[C@H](Cc1ccc2ccccc2c1)C(=O)N[C@H](CCCNC(=N)N)C(=O)N[C@H](CCCNC(=N)N)C(N)=O [LV-1] (Ac-[dR][dR][dL][dL][d2Nal][dR][dL][dR][d2Nal][dR][dR]-NH2) | 1 | 4 (≈ 2.31 µM) | 98.5 | 0 | 0 | 1 | 1 | 1 | 11.9**** Days | 4 (≈ 2.31 µM) | 1 (≈ 0.578 µM) | 2 (≈ 1.16 µM) | 4 (≈ 2.31 µM) | 8 (≈ 4.62 µM) | 4 (≈ 2.31 µM) | 1 (≈ 0.578 µM) | 1 (≈ 0.578 µM) | 8 (≈ 4.62 µM) | 8 (≈ 4.62 µM) | 2 (≈ 1.16 µM) | Number of mice that died on each day after infection: day 4 ([4]; 0.2 mg/kg gavage): 0 Mouse; Number of mice that died on each day after infection: day 5 ([4]; 0.2 mg/kg gavage): 3 Mouse; Number of mice that died on each day after infection: day 6 ([4]; 0.2 mg/kg gavage): 1 Mouse; Number of mice that died on each day after infection: day 7 ([4]; 0.2 mg/kg gavage): 0 Mouse; Number of mice that died on each day after infection: day 8 ([4]; 0.2 mg/kg gavage): 1 Mouse; Average survival times (Days) ([4]; 0.2 mg/kg gavage): 9.9** Days; Number of mice that died on each day after infection: day 4 ([4]; 5 mg/kg gavage): 0 Mouse; Number of mice that died on each day after infection: day 5 ([4]; 5 mg/kg gavage): 0 Mouse; Number of mice that died on each day after infection: day 6 ([4]; 5 mg/kg gavage): 2 Mouse; Number of mice that died on each day after infection: day 7 ([4]; 5 mg/kg gavage): 1 Mouse; Number of mice that died on each day after infection: day 8 ([4]; 5 mg/kg gavage): 0 Mouse; Average survival times (Days) ([4]; 5 mg/kg gavage): 11.7**** Days; survival time of mice infected with Escherichia coli ([4]; gavage, observed 14 d): superior to those of the Levofloxacin group; MIC Candida tropicalis ATCC 750 [14]: 4 µg/mL (≈ 2.31 µM); MIC Trichophyton ATCC MYA-4438 [15]: 8 µg/mL (≈ 4.62 µM); MIC Enterococcus ATCC 29212 (Enterococcus ATCC 29212): 2 µg/mL (≈ 1.16 µM); MIC Serratia marcescens ATCC 29021 [16]: 2 µg/mL (≈ 1.16 µM); MIC against Staphylococcus aureus (NRS 384) [17]: 1 µg/mL (≈ 0.578 µM)
2 | CC(=O)N[C@H](CCCNC(=N)N)C(=O)N[C@H](CCCNC(=N)N)C(=O)N[C@H](CC(C)C)C(=O)N[C@H](CC(C)C)C(=O)N[C@H](Cc1ccc2ccccc2c1)C(=O)N[C@H](CCCNC(=N)N)C(=O)N[C@H](CC(C)C)C(=O)N[C@H](CCCCN)C(=O)N[C@H](Cc1ccc2ccccc2c1)C(=O)N[C@H](CCCNC(=N)N)C(=O)N[C@H](CCCCN)C(N)=O [LV-21] (Ac-[dR][dR][dL][dL][d2Nal][dR][dL][dK][d2Nal][dR][dK]-NH2) | 1 | 2 (≈ 1.19 µM) | 97.9 | 1 | 2 | 1 | 0 | 1 | 9.8** Days | 4 (≈ 2.39 µM) | 2 (≈ 1.19 µM) | 4 (≈ 2.39 µM) | 2 (≈ 1.19 µM) | 16 (≈ 9.56 µM) | 4 (≈ 2.39 µM) | 2 (≈ 1.19 µM) | 1 (≈ 0.597 µM) | 8 (≈ 4.78 µM) | 8 (≈ 4.78 µM) | 2 (≈ 1.19 µM) | MIC Candida tropicalis ATCC 750 [14]: 8 µg/mL (≈ 4.78 µM); MIC Trichophyton ATCC MYA-4438 [15]: 4 µg/mL (≈ 2.39 µM); MIC Enterococcus ATCC 29212 (Enterococcus ATCC 29212): 4 µg/mL (≈ 2.39 µM); MIC Serratia marcescens ATCC 29021 [16]: 4 µg/mL (≈ 2.39 µM); MIC against Staphylococcus aureus (NRS 384) [17]: 1 µg/mL (≈ 0.597 µM)

Reference: US20250304620A1, “ANTIMICROBIAL PEPTIDE AND APPLICATION THEREOF” (priority 2023, published 2025)
